Assay results as given in PubChem BioAssay (NCI).
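Briefly, cells in 96-well plates were exposed to five compound concentrations for 48 h, and endpoints were estimated by linear interpolation. The concentration for full growth arrest is given as TGI.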

Columns and labels:
Assay in all cases: DTP human tumour cell line panel, 48 h
IGROV1 ovarian = system: IGROV1 ovarian
NCI-H460 lung = system: NCI-H460 lung
CCRF-CEM leukemia = system: CCRF-CEM leukemia
UO-31 renal = system: UO-31 renal
MOLT-4 leukemia = system: MOLT-4 leukemia
SW-620 colon = system: SW-620 colon
U251 CNS = system: U251 CNS
SK-MEL-2 melanoma = system: SK-MEL-2 melanoma
TK-10 renal = system: TK-10 renal
RXF 393 renal = system: RXF 393 renal
SNB-19 CNS = system: SNB-19 CNS
HT29 colon = system: HT29 colon
HS 578T breast = system: HS 578T breast
MCF7 breast = system: MCF7 breast
NCI-H522 lung = system: NCI-H522 lung
RPMI-8226 leukemia = system: RPMI-8226 leukemia
HCT-15 colon = system: HCT-15 colon
OVCAR-3 ovarian = system: OVCAR-3 ovarian
HCT-116 colon = system: HCT-116 colon
HOP-92 NSCLC = system: HOP-92 NSCLC

SMILES	TGI (IGROV1 ovarian) [µM]	TGI (NCI-H460 lung) [µM]	TGI (CCRF-CEM leukemia) [µM]	TGI (UO-31 renal) [µM]	TGI (MOLT-4 leukemia) [µM]	TGI (SW-620 colon) [µM]	TGI (U251 CNS) [µM]	TGI (SK-MEL-2 melanoma) [µM]	TGI (TK-10 renal) [µM]	TGI (RXF 393 renal) [µM]	TGI (SNB-19 CNS) [µM]	TGI (HT29 colon) [µM]	TGI (HS 578T breast) [µM]	TGI (MCF7 breast) [µM]	TGI (NCI-H522 lung) [µM]	TGI (RPMI-8226 leukemia) [µM]	TGI (HCT-15 colon) [µM]	TGI (OVCAR-3 ovarian) [µM]	TGI (HCT-116 colon) [µM]	TGI (HOP-92 NSCLC) [µM]
CC(=O)O[C@H]1C[C@H]2[C@@H]([C@H](OC(C)=O)C[C@@H]3CC4(CC[C@@]32C)OOC2(CCCCC2)OO4)[C@@H]2CC[C@H]([C@H](C)CCC(N)=O)[C@@]12C	0.474	5.06	3.13	0.193	2.9	5.77	3.15	4.48	6.27	10.2	20.1	14.3	19.7	9.29	1.48	2.7	5.31	3.17	11.2	–
Clc1ccc(-c2c3nc(c(-c4ccc(Cl)cc4)c4ccc([nH]4)c(-c4ccc(Cl)cc4)c4nc(c(-c5ccc(Cl)cc5)c5ccc2[nH]5)C=C4)C=C3)cc1	> 100	> 100	> 100	> 100	> 100	> 100	> 100	> 100	> 100	–	> 100	> 100	> 100	> 100	> 100	> 100	> 100	> 100	–	> 100
Cc1ccc(N/N=C/C2=CC(C)(C)C(C#N)(C#N)C(O)=C2C#N)cc1	> 100	> 100	> 100	> 100	> 100	> 100	–	–	> 100	85.2	> 100	> 100	> 100	> 100	> 100	93.7	–	> 100	> 100	42.2
C=C1CC(COc2ccc3c(C)c(Cl)c(=O)oc3c2)(c2ccccc2)OC1=O (configuration not stated)	3.89	23.5	–	12.5	–	2.62	20.4	3.36	3.18	–	29.7	2.67	17.5	5.14	3.93	1.42	5.13	6.71	2.42	3.01
O=C(O)c1[nH]c(=O)[nH]c(=O)c1CN1CCCCC1	> 100	> 100	> 100	> 100	–	> 100	> 100	> 100	> 100	> 100	> 100	> 100	> 100	> 100	> 100	> 100	> 100	> 100	> 100	> 100
O=S(Nc1ccccc1)c1ccccc1Oc1ccccc1 (configuration not stated)	12.6	> 100	> 100	> 100	> 100	> 100	> 100	–	> 100	> 100	> 100	> 100	19.6	> 100	> 100	> 100	> 100	> 100	> 100	–
COc1cc2c(NCCN(C)C)nc3c4cc5c(cc4ccc3c2cc1OC)OCO5	5.82	5.38	6.44	7.05	5.3	7.22	7.83	9.94	5.88	7.3	7.15	6.56	12.4	6.07	8.02	17.2	6.56	–	6.77	8.77
